{"source": "ChEMBL document CHEMBL1152912", "about": "“Protective effects of a benzoxazine derivative against oxidized LDL-induced apoptosis and the increases of integrin beta4, ROS, NF-kappaB and P53 in human umbilical vein endothelial cells” (Bioorg Med Chem Lett, 2009)", "key": {"HUVEC [1]": {"tested_on": "HUVEC", "test": "Antiapoptotic activity against low density lipoprotein-induced vascular apoptosis in HUVEC cells assessed as modulation of P53 level by lase scanning confocal microscope", "format": "functional, cell-based", "conditions": "Homo sapiens"}, "HUVEC [2]": {"tested_on": "HUVEC", "test": "Antiapoptotic activity against low density lipoprotein-induced apoptosis in HUVEC cells assessed as inhibition of integrin beta4 level at 50 uM by immunofluorescence technique", "format": "functional, cell-based", "conditions": "Homo sapiens"}, "HUVEC [3]": {"tested_on": "HUVEC", "test": "Antiapoptotic activity against low density lipoprotein-induced apoptosis in HUVEC cells assessed as nuclear fragmentation after 24 hrs by acridin orange staining", "format": "functional, cell-based", "conditions": "Homo sapiens"}, "HUVEC [4]": {"tested_on": "HUVEC", "test": "Antiapoptotic activity against low density lipoprotein-induced apoptosis in HUVEC cells assessed as nuclear condensation after 24 hrs by acridin orange staining", "format": "functional, cell-based", "conditions": "Homo sapiens"}, "HUVEC [5]": {"tested_on": "HUVEC", "test": "Antiapoptotic activity against low density lipoprotein-induced vascular apoptosis in HUVEC cells assessed as translocation of NF-kappaB across the nucleus by lase scanning confocal microscope", "format": "functional, cell-based", "conditions": "Homo sapiens"}, "HUVEC [6]": {"tested_on": "HUVEC", "test": "Antiapoptotic activity against low density lipoprotein-induced apoptosis in HUVEC cells by Hoechst 33258 staining", "format": "functional, cell-based", "conditions": "Homo sapiens"}, "HUVEC [7]": {"tested_on": "HUVEC", "test": "Antiapoptotic activity against low density lipoprotein-induced vascular apoptosis in HUVEC cells assessed as modulation of NF-kappaB level by lase scanning confocal microscope", "format": "functional, cell-based", "conditions": "Homo sapiens"}, "HUVEC [8]": {"tested_on": "HUVEC", "test": "Cytotoxicity against HUVEC cells assessed as reduction in low density lipoprotein-induced cell viability at 50 uM by MTT assay", "format": "cell-based", "conditions": "human"}, "HUVEC [9]": {"tested_on": "HUVEC", "test": "Antiapoptotic activity against low density lipoprotein-induced vascular apoptosis in HUVEC cells assessed as inhibition of ROS by lase scanning confocal microscope", "format": "functional, cell-based", "conditions": "Homo sapiens"}, "HUVEC [10]": {"tested_on": "HUVEC", "test": "Antiapoptotic activity against low density lipoprotein-induced apoptosis in HUVEC cells assessed as apoptotic cell after 24 hrs by TUNEL assay", "format": "functional, cell-based", "conditions": "Homo sapiens"}}, "note": "The source made the active and inactive calls. No cut-off for these calls is given here."}
{"molecule": "Nc1ccc2c(c1)NC(CO)CO2", "note": "(stereo not given)", "values": [{"measurement": "Activity", "setting": "HUVEC [1]", "result": "Active"}, {"measurement": "Activity", "setting": "HUVEC [2]", "result": "Active"}, {"measurement": "Activity", "setting": "HUVEC [3]", "result": "Active"}, {"measurement": "Activity", "setting": "HUVEC [4]", "result": "Active"}, {"measurement": "Activity", "setting": "HUVEC [5]", "result": "Active"}, {"measurement": "Activity", "setting": "HUVEC [6]", "result": "Dose-dependent effect"}, {"measurement": "Activity", "setting": "HUVEC [7]", "result": "Active"}, {"measurement": "Activity", "setting": "HUVEC [8]", "result": "Toxic"}, {"measurement": "Activity", "setting": "HUVEC [9]", "result": "Active"}, {"measurement": "Activity", "setting": "HUVEC [10]", "result": "Active"}]}
